# The source made the active and inactive calls. No rule for the calls is given here.
# Tested on: not listed separately
# Assay: Antioxidant activity assessed as metal chelating activity by measuring inhibition of ferrozine-Fe2+ complex formation at 25 to 100 ug/ml
# Assay type: functional
# Conditions: not given
row,Structure (SMILES),Activity
1,Nc1nc(=O)[nH]c2c1C(c1c(-c3ccccc3)[nH]c3ccc(Cl)cc13)C=C(c1ccccc1)O2 (stereo not given),Active
2,Cc1ccc(C2=CC(c3c(-c4ccccc4)[nH]c4ccc(Cl)cc34)c3c(N)nc(=O)[nH]c3O2)cc1 (stereo not given),Active

# Tested on: Aspergillus flavus
# Assay: Antimicrobial activity against Aspergillus flavus MTCC 1973 at 500 ug/ml after 72 hrs by cup plate method
# Assay type: functional
# Conditions: MTCC 1973, 72 h, read-out: IZ
row,Structure (SMILES),zone of inhibition at 500 µg/mL [mm]
1,Nc1nc(=O)[nH]c2c1C(c1c(-c3ccccc3)[nH]c3ccc(Cl)cc13)C=C(c1ccccc1)O2 (stereo not given),10
2,Cc1ccc(C2=CC(c3c(-c4ccccc4)[nH]c4ccc(Cl)cc34)c3c(N)nc(=O)[nH]c3O2)cc1 (stereo not given),12

# Tested on: Aspergillus flavus
# Assay: Antimicrobial activity against Aspergillus flavus MTCC 1973 at 750 ug/ml after 72 hrs by cup plate method
# Assay type: functional
# Conditions: MTCC 1973, 72 h, read-out: IZ
row,Structure (SMILES),zone of inhibition at 750 µg/mL [mm]
1,Nc1nc(=O)[nH]c2c1C(c1c(-c3ccccc3)[nH]c3ccc(Cl)cc13)C=C(c1ccccc1)O2 (stereo not given),10
2,Cc1ccc(C2=CC(c3c(-c4ccccc4)[nH]c4ccc(Cl)cc34)c3c(N)nc(=O)[nH]c3O2)cc1 (stereo not given),12

# Tested on: Aspergillus flavus
# Assay: Antimicrobial activity against Aspergillus flavus MTCC 1973 at 1000 ug/ml after 72 hrs by cup plate method
# Assay type: functional
# Conditions: MTCC 1973, 72 h, read-out: IZ
row,Structure (SMILES),zone of inhibition at 1000 µg/mL [mm]
1,Nc1nc(=O)[nH]c2c1C(c1c(-c3ccccc3)[nH]c3ccc(Cl)cc13)C=C(c1ccccc1)O2 (stereo not given),9
2,Cc1ccc(C2=CC(c3c(-c4ccccc4)[nH]c4ccc(Cl)cc34)c3c(N)nc(=O)[nH]c3O2)cc1 (stereo not given),13

# Tested on: Aspergillus terreus
# Assay: Antimicrobial activity against Aspergillus terreus MTCC 1782 at 500 ug/ml after 72 hrs by cup plate method
# Assay type: functional
# Conditions: MTCC 1782, 72 h, read-out: IZ
row,Structure (SMILES),zone of inhibition at 500 µg/mL [mm]
1,Nc1nc(=O)[nH]c2c1C(c1c(-c3ccccc3)[nH]c3ccc(Cl)cc13)C=C(c1ccccc1)O2 (stereo not given),3
2,Cc1ccc(C2=CC(c3c(-c4ccccc4)[nH]c4ccc(Cl)cc34)c3c(N)nc(=O)[nH]c3O2)cc1 (stereo not given),8

# Tested on: Aspergillus terreus
# Assay: Antimicrobial activity against Aspergillus terreus MTCC 1782 at 750 ug/ml after 72 hrs by cup plate method
# Assay type: functional
# Conditions: MTCC 1782, 72 h, read-out: IZ
row,Structure (SMILES),zone of inhibition at 750 µg/mL [mm]
1,Nc1nc(=O)[nH]c2c1C(c1c(-c3ccccc3)[nH]c3ccc(Cl)cc13)C=C(c1ccccc1)O2 (stereo not given),3
2,Cc1ccc(C2=CC(c3c(-c4ccccc4)[nH]c4ccc(Cl)cc34)c3c(N)nc(=O)[nH]c3O2)cc1 (stereo not given),8

# Tested on: Aspergillus terreus
# Assay: Antimicrobial activity against Aspergillus terreus MTCC 1782 at 1000 ug/ml after 72 hrs by cup plate method
# Assay type: functional
# Conditions: MTCC 1782, 72 h, read-out: IZ
row,Structure (SMILES),zone of inhibition at 1000 µg/mL [mm]
1,Nc1nc(=O)[nH]c2c1C(c1c(-c3ccccc3)[nH]c3ccc(Cl)cc13)C=C(c1ccccc1)O2 (stereo not given),3
2,Cc1ccc(C2=CC(c3c(-c4ccccc4)[nH]c4ccc(Cl)cc34)c3c(N)nc(=O)[nH]c3O2)cc1 (stereo not given),8

# Tested on: Aspergillus oryzae
# Assay: Antimicrobial activity against Aspergillus oryzae MTCC 3567 at 500 ug/ml after 72 hrs by cup plate method
# Assay type: functional
# Conditions: MTCC 3567, 72 h, read-out: IZ
row,Structure (SMILES),zone of inhibition at 500 µg/mL [mm]
1,Nc1nc(=O)[nH]c2c1C(c1c(-c3ccccc3)[nH]c3ccc(Cl)cc13)C=C(c1ccccc1)O2 (stereo not given),12
2,Cc1ccc(C2=CC(c3c(-c4ccccc4)[nH]c4ccc(Cl)cc34)c3c(N)nc(=O)[nH]c3O2)cc1 (stereo not given),12

# Tested on: Aspergillus oryzae
# Assay: Antimicrobial activity against Aspergillus oryzae MTCC 3567 at 750 ug/ml after 72 hrs by cup plate method
# Assay type: functional
# Conditions: MTCC 3567, 72 h, read-out: IZ
row,Structure (SMILES),zone of inhibition at 750 µg/mL [mm]
1,Nc1nc(=O)[nH]c2c1C(c1c(-c3ccccc3)[nH]c3ccc(Cl)cc13)C=C(c1ccccc1)O2 (stereo not given),12
2,Cc1ccc(C2=CC(c3c(-c4ccccc4)[nH]c4ccc(Cl)cc34)c3c(N)nc(=O)[nH]c3O2)cc1 (stereo not given),13

# Tested on: Aspergillus oryzae
# Assay: Antimicrobial activity against Aspergillus oryzae MTCC 3567 at 1000 ug/ml after 72 hrs by cup plate method
# Assay type: functional
# Conditions: MTCC 3567, 72 h, read-out: IZ
row,Structure (SMILES),zone of inhibition at 1000 µg/mL [mm]
1,Nc1nc(=O)[nH]c2c1C(c1c(-c3ccccc3)[nH]c3ccc(Cl)cc13)C=C(c1ccccc1)O2 (stereo not given),12
2,Cc1ccc(C2=CC(c3c(-c4ccccc4)[nH]c4ccc(Cl)cc34)c3c(N)nc(=O)[nH]c3O2)cc1 (stereo not given),13

# Tested on: Aspergillus niger
# Assay: Antimicrobial activity against Aspergillus niger MTCC 281 at 500 ug/ml after 72 hrs by cup plate method
# Assay type: functional
# Conditions: MTCC 281, 72 h, read-out: IZ
row,Structure (SMILES),zone of inhibition at 500 µg/mL [mm]
1,Nc1nc(=O)[nH]c2c1C(c1c(-c3ccccc3)[nH]c3ccc(Cl)cc13)C=C(c1ccccc1)O2 (stereo not given),10
2,Cc1ccc(C2=CC(c3c(-c4ccccc4)[nH]c4ccc(Cl)cc34)c3c(N)nc(=O)[nH]c3O2)cc1 (stereo not given),10

# Tested on: Aspergillus niger
# Assay: Antimicrobial activity against Aspergillus niger MTCC 281 at 750 ug/ml after 72 hrs by cup plate method
# Assay type: functional
# Conditions: MTCC 281, 72 h, read-out: IZ
row,Structure (SMILES),zone of inhibition at 750 µg/mL [mm]
1,Nc1nc(=O)[nH]c2c1C(c1c(-c3ccccc3)[nH]c3ccc(Cl)cc13)C=C(c1ccccc1)O2 (stereo not given),10
2,Cc1ccc(C2=CC(c3c(-c4ccccc4)[nH]c4ccc(Cl)cc34)c3c(N)nc(=O)[nH]c3O2)cc1 (stereo not given),10

# Tested on: Aspergillus niger
# Assay: Antimicrobial activity against Aspergillus niger MTCC 281 at 1000 ug/ml after 72 hrs by cup plate method
# Assay type: functional
# Conditions: MTCC 281, 72 h, read-out: IZ
row,Structure (SMILES),zone of inhibition at 1000 µg/mL [mm]
1,Nc1nc(=O)[nH]c2c1C(c1c(-c3ccccc3)[nH]c3ccc(Cl)cc13)C=C(c1ccccc1)O2 (stereo not given),8
2,Cc1ccc(C2=CC(c3c(-c4ccccc4)[nH]c4ccc(Cl)cc34)c3c(N)nc(=O)[nH]c3O2)cc1 (stereo not given),10

# Tested on: Pseudomonas aeruginosa
# Assay: Antimicrobial activity against Pseudomonas aeruginosa MTCC 1688 at 500 ug/ml after 24 hrs by cup plate method
# Assay type: functional
# Conditions: MTCC 1688, 24 h, read-out: IZ
row,Structure (SMILES),zone of inhibition at 500 µg/mL [mm]
1,Nc1nc(=O)[nH]c2c1C(c1c(-c3ccccc3)[nH]c3ccc(Cl)cc13)C=C(c1ccccc1)O2 (stereo not given),9
2,Cc1ccc(C2=CC(c3c(-c4ccccc4)[nH]c4ccc(Cl)cc34)c3c(N)nc(=O)[nH]c3O2)cc1 (stereo not given),10

# Tested on: Pseudomonas aeruginosa
# Assay: Antimicrobial activity against Pseudomonas aeruginosa MTCC 1688 at 750 ug/ml after 24 hrs by cup plate method
# Assay type: functional
# Conditions: MTCC 1688, 24 h, read-out: IZ
row,Structure (SMILES),zone of inhibition at 750 µg/mL [mm]
1,Nc1nc(=O)[nH]c2c1C(c1c(-c3ccccc3)[nH]c3ccc(Cl)cc13)C=C(c1ccccc1)O2 (stereo not given),8
2,Cc1ccc(C2=CC(c3c(-c4ccccc4)[nH]c4ccc(Cl)cc34)c3c(N)nc(=O)[nH]c3O2)cc1 (stereo not given),9

# Tested on: Pseudomonas aeruginosa
# Assay: Antimicrobial activity against Pseudomonas aeruginosa MTCC 1688 at 1000 ug/ml after 24 hrs by cup plate method
# Assay type: functional
# Conditions: MTCC 1688, 24 h, read-out: IZ
row,Structure (SMILES),zone of inhibition at 1000 µg/mL [mm]
1,Nc1nc(=O)[nH]c2c1C(c1c(-c3ccccc3)[nH]c3ccc(Cl)cc13)C=C(c1ccccc1)O2 (stereo not given),5
2,Cc1ccc(C2=CC(c3c(-c4ccccc4)[nH]c4ccc(Cl)cc34)c3c(N)nc(=O)[nH]c3O2)cc1 (stereo not given),8

# Tested on: Klebsiella pneumoniae
# Assay: Antimicrobial activity against Klebsiella pneumoniae NCTC 13368 at 500 ug/ml after 24 hrs by cup plate method
# Assay type: functional
# Conditions: NCTC 13368, 24 h, read-out: IZ
row,Structure (SMILES),zone of inhibition at 500 µg/mL [mm]
1,Nc1nc(=O)[nH]c2c1C(c1c(-c3ccccc3)[nH]c3ccc(Cl)cc13)C=C(c1ccccc1)O2 (stereo not given),11
2,Cc1ccc(C2=CC(c3c(-c4ccccc4)[nH]c4ccc(Cl)cc34)c3c(N)nc(=O)[nH]c3O2)cc1 (stereo not given),8

# Tested on: Klebsiella pneumoniae
# Assay: Antimicrobial activity against Klebsiella pneumoniae NCTC 13368 at 750 ug/ml after 24 hrs by cup plate method
# Assay type: functional
# Conditions: NCTC 13368, 24 h, read-out: IZ
row,Structure (SMILES),zone of inhibition at 750 µg/mL [mm]
1,Nc1nc(=O)[nH]c2c1C(c1c(-c3ccccc3)[nH]c3ccc(Cl)cc13)C=C(c1ccccc1)O2 (stereo not given),10
2,Cc1ccc(C2=CC(c3c(-c4ccccc4)[nH]c4ccc(Cl)cc34)c3c(N)nc(=O)[nH]c3O2)cc1 (stereo not given),8

# Tested on: Klebsiella pneumoniae
# Assay: Antimicrobial activity against Klebsiella pneumoniae NCTC 13368 at 1000 ug/ml after 24 hrs by cup plate method
# Assay type: functional
# Conditions: NCTC 13368, 24 h, read-out: IZ
row,Structure (SMILES),zone of inhibition at 1000 µg/mL [mm]
1,Nc1nc(=O)[nH]c2c1C(c1c(-c3ccccc3)[nH]c3ccc(Cl)cc13)C=C(c1ccccc1)O2 (stereo not given),10
2,Cc1ccc(C2=CC(c3c(-c4ccccc4)[nH]c4ccc(Cl)cc34)c3c(N)nc(=O)[nH]c3O2)cc1 (stereo not given),8

# Tested on: Staphylococcus aureus
# Assay: Antimicrobial activity against Staphylococcus aureus ATCC 29513 at 500 ug/ml after 24 hrs by cup plate method
# Assay type: functional
# Conditions: ATCC 29513, 24 h, read-out: IZ
row,Structure (SMILES),zone of inhibition at 500 µg/mL [mm]
1,Nc1nc(=O)[nH]c2c1C(c1c(-c3ccccc3)[nH]c3ccc(Cl)cc13)C=C(c1ccccc1)O2 (stereo not given),3
2,Cc1ccc(C2=CC(c3c(-c4ccccc4)[nH]c4ccc(Cl)cc34)c3c(N)nc(=O)[nH]c3O2)cc1 (stereo not given),0

# Tested on: Staphylococcus aureus
# Assay: Antimicrobial activity against Staphylococcus aureus ATCC 29513 at 750 ug/ml after 24 hrs by cup plate method
# Assay type: functional
# Conditions: ATCC 29513, 24 h, read-out: IZ
row,Structure (SMILES),zone of inhibition at 750 µg/mL [mm]
1,Nc1nc(=O)[nH]c2c1C(c1c(-c3ccccc3)[nH]c3ccc(Cl)cc13)C=C(c1ccccc1)O2 (stereo not given),3
2,Cc1ccc(C2=CC(c3c(-c4ccccc4)[nH]c4ccc(Cl)cc34)c3c(N)nc(=O)[nH]c3O2)cc1 (stereo not given),0

# Tested on: Staphylococcus aureus
# Assay: Antimicrobial activity against Staphylococcus aureus ATCC 29513 at 1000 ug/ml after 24 hrs by cup plate method
# Assay type: functional
# Conditions: ATCC 29513, 24 h, read-out: IZ
row,Structure (SMILES),zone of inhibition at 1000 µg/mL [mm]
1,Nc1nc(=O)[nH]c2c1C(c1c(-c3ccccc3)[nH]c3ccc(Cl)cc13)C=C(c1ccccc1)O2 (stereo not given),3
2,Cc1ccc(C2=CC(c3c(-c4ccccc4)[nH]c4ccc(Cl)cc34)c3c(N)nc(=O)[nH]c3O2)cc1 (stereo not given),0

# Tested on: Escherichia coli
# Assay: Antimicrobial activity against Escherichia coli MTCC 723 at 500 ug/ml after 24 hrs by cup plate method
# Assay type: functional
# Conditions: MTCC 723, 24 h, read-out: IZ
row,Structure (SMILES),zone of inhibition at 500 µg/mL [mm]
1,Nc1nc(=O)[nH]c2c1C(c1c(-c3ccccc3)[nH]c3ccc(Cl)cc13)C=C(c1ccccc1)O2 (stereo not given),10
2,Cc1ccc(C2=CC(c3c(-c4ccccc4)[nH]c4ccc(Cl)cc34)c3c(N)nc(=O)[nH]c3O2)cc1 (stereo not given),8

# Tested on: Escherichia coli
# Assay: Antimicrobial activity against Escherichia coli MTCC 723 at 750 ug/ml after 24 hrs by cup plate method
# Assay type: functional
# Conditions: MTCC 723, 24 h, read-out: IZ
row,Structure (SMILES),zone of inhibition at 750 µg/mL [mm]
1,Nc1nc(=O)[nH]c2c1C(c1c(-c3ccccc3)[nH]c3ccc(Cl)cc13)C=C(c1ccccc1)O2 (stereo not given),10
2,Cc1ccc(C2=CC(c3c(-c4ccccc4)[nH]c4ccc(Cl)cc34)c3c(N)nc(=O)[nH]c3O2)cc1 (stereo not given),8

# Tested on: Escherichia coli
# Assay: Antimicrobial activity against Escherichia coli MTCC 723 at 1000 ug/ml after 24 hrs by cup plate method
# Assay type: functional
# Conditions: MTCC 723, 24 h, read-out: IZ
row,Structure (SMILES),zone of inhibition at 1000 µg/mL [mm]
1,Nc1nc(=O)[nH]c2c1C(c1c(-c3ccccc3)[nH]c3ccc(Cl)cc13)C=C(c1ccccc1)O2 (stereo not given),10
2,Cc1ccc(C2=CC(c3c(-c4ccccc4)[nH]c4ccc(Cl)cc34)c3c(N)nc(=O)[nH]c3O2)cc1 (stereo not given),10
